PMC9804470, “A Formylglycine‐Peptide for the Site‐Directed Identification of Phosphotyrosine‐Mimetic Fragments” (Chemistry (Weinheim an Der Bergstrasse, Germany), 2022)
“Also recorded” adds a separate entry of the source. Where two headings read alike, the source gives them in different places. *1 amine or outer side, *2 acyl side, *3 side chain or, on linkers, in order; H or OH if unused. Where a SMILES comes first, the peptide text is derived from it. [ ]: non-standard residue; d: D form. The star is where a group is joined. ξ: configuration not given here. F2Pmp = N[C@@H](Cc1ccc(C(F)(F)P(=O)(O)O)cc1)C(=O)O; X3 = O=C1NC(=O)C(CC(N[*:1])C(=O)[*:2])C(=O)N1; X4 = O=S(=O)(Nc1ccc(*)cc1)C(F)(F)F; X2 = O=C(O)COc1ccc(*)cc1; X1 = O=C(O)Cc1ccc(*)cc1; Dap = NC[C@H](N)C(=O)O; ξDap = NCC(N)C(=O)O

Experiments:
[1] = molecular target: T1, catalytic domain of human PTP1B (Homo sapiens, UniProt P18031); test: Enzyme activity assay of PTP1B with fluorogenic substrate DiFMUP; assay type: biochemical; conditions: SD
T1 construct: catalytic domain of human PTP1B (amino acids 1–321); His7 (N, cleaved yes); made in house; host or cells: E. coli Rosetta (DE3)
T1 sequence (P18031 1-321): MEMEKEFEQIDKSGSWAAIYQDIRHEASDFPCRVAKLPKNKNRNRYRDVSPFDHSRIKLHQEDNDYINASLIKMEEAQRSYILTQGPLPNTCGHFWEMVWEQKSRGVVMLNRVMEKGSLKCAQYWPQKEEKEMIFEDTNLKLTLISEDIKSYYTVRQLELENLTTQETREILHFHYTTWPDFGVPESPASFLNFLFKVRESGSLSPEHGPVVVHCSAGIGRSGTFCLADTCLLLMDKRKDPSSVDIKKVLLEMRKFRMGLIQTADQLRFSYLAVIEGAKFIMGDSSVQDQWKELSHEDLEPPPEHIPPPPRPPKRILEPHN
Procedure: Protein Expression and purification: DNA encoding the catalytic domain of human PTP1B (amino acids 1–321) was subcloned into the pQLinkH vector. The gene encoding the N‐terminal His7‐tagged protein was over‐expressed at 17 °C in E. coli Rosetta (DE3). […] The His7‐tag was cleaved with tobacco etch virus protease at 20 °C prior to the gel‐filtration step. The catalytic domain of human SHP2 (amino acids 225–541) was purified from E. coli B21 (DE3). The overexpressed protein was fused to an N‐terminal His10‐tag. Cells were harvested and resuspended in 25 mM Tris‐HCl (pH=7.5), 50 mM NaCl, 1 % (v/v) Triton X‐100, 10 % (v/v) glycerol, 1 mM DTT. After cell lysis, debris was removed by centrifugation at 12,000 rpm for 30 min. The supernatant was filtered prior to affinity purification with Ni‐NTA agarose (Qiagen). The slurry was washed with 50 mM Tris‐HCl (pH=8.0), 500 mM NaCl supplemented with 25 mM imidazole. Reasonably pure protein was eluted with 200–300 mM imidazole. The purification was completed by size‐exclusion chromatography with a Superdex 75 16/600 column (GE Healthcare) equilibrated with 20 mM HEPES‐NaOH (pH=7.5), 50 mM NaCl, 1 mM DTT.
(§1) Enzyme activity assays of SHP2 and PTP1B: The catalytic activity of SHP2 catalytic domain and PTP1B were monitored using the fluorogenic substrate DiFMUP (6,8‐difluoro‐4‐methylumbelliferyl phosphate). Phosphatase reactions were performed at room temperature in 384‐well black plate, clear flat bottom, low flange, non‐binding surface (Corning, Cat# 3766) using a final volume of 20 μL and the following assay buffer conditions: 50 mM MOPS, pH=6.5, 200 mM NaCl, 50 μM TCEP, 0.03 % Tween‐20 (freshly added prior to each measurement). Test compounds were dissolved in DMSO or buffer at stock concentrations of 50, 20 or 10 mM and serially diluted. Enzyme (5 nM PTP1B or 2.5 nM SHP2 catalytic domain) and different concentrations of the tested compounds were incubated in buffer for 30–60 min at room temperature. Measurements were performed with a final concentration of 2.5 % DMSO unless stated otherwise at 37 °C and were performed in triplicate. Enzymatic reactions were started by adding DiFMUP (Invitrogen, cat# D6567) concentrations matching the experimentally determined KM values of the enzymes of 67 μM (PTP1B) or 72 μM (SHP2). Samples were excited at a wavelength of 360 nm and emitted fluorescence was recorded at 460 for 10 min using a microplate reader (infinite M1000 Pro, Tecan). Initial slope of fluorescence was determined in triplicate and IC50 values were calculated with GraphPad Prism 5. Determined IC50 values were converted into the corresponding KI values applying the Cheng Prusoff equation KI =IC50 /(1+[S]/KM ).

[2] = molecular target: T2, catalytic domain of human SHP2 (Homo sapiens, UniProt Q06124); test: Enzyme activity assay of SHP2 catalytic domain with fluorogenic substrate DiFMUP; assay type: biochemical; conditions: DiFMUP 72 μM (= KM), enzyme 1.5 nM, triplicate; from IC50 by Cheng-Prusoff (IC50/2); read-out: KI SHP2 (Table 2, footnote a)
T2 construct: catalytic domain of human SHP2 (amino acids 225–541); His10 (N); made in house; host or cells: E. coli B21 (DE3)
T2 sequence (Q06124 225-541): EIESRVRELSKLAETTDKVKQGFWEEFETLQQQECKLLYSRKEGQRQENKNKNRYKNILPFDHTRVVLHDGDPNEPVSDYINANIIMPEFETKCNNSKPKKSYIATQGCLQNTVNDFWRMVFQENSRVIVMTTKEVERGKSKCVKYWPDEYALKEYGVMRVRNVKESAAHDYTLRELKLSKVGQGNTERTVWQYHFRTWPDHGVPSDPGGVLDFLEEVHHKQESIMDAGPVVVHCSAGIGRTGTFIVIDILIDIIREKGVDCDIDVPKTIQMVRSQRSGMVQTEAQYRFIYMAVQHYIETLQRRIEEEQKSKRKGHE
Procedure: Enzyme activity assays of SHP2 and PTP1B: The catalytic activity of SHP2 catalytic domain and PTP1B were monitored using the fluorogenic substrate DiFMUP (6,8‐difluoro‐4‐methylumbelliferyl phosphate). Phosphatase reactions were performed at room temperature in 384‐well black plate, clear flat bottom, low flange, non‐binding surface (Corning, Cat# 3766) using a final volume of 20 μL and the following assay buffer conditions: 50 mM MOPS, pH=6.5, 200 mM NaCl, 50 μM TCEP, 0.03 % Tween‐20 (freshly added prior to each measurement). Test compounds were dissolved in DMSO or buffer at stock concentrations of 50, 20 or 10 mM and serially diluted. Enzyme (5 nM PTP1B or 2.5 nM SHP2 catalytic domain) and different concentrations of the tested compounds were incubated in buffer for 30–60 min at room temperature. […] Enzymatic reactions were started by adding DiFMUP (Invitrogen, cat# D6567) concentrations matching the experimentally determined KM values of the enzymes of 67 μM (PTP1B) or 72 μM (SHP2). Samples were excited at a wavelength of 360 nm and emitted fluorescence was recorded at 460 for 10 min using a microplate reader (infinite M1000 Pro, Tecan). Initial slope of fluorescence was determined in triplicate and IC50 values were calculated with GraphPad Prism 5. Determined IC50 values were converted into the corresponding KI values applying the Cheng Prusoff equation KI =IC50 /(1+[S]/KM ).

SHP2 = molecular target: T3, SHP2 (Homo sapiens, UniProt Q06124); test: Determination of KI using Michaelis-Menten kinetics; assay type: biochemical
T3 construct: catalytic domain of human SHP2 (amino acids 225–541); His10 (N); made in house; host or cells: E. coli B21 (DE3)
T3 sequence (Q06124 225-541): T2 sequence (Q06124 225-541)
Procedure: as §1
Determination of KI values using Michaelis-Menten kinetics
The assays for the determination of KI values were performed as described under the same conditions as mentioned in the main paper. The initial velocities of the enzymatic reaction inhibited by compound 21 were determined using four different inhibitor concentrations (0, 75, 100 and 150 nM) and four different substrate concentrations (100, 50, 25 and 12.5 µM).
Fluorescence was monitored over 10 min, during which the increase in fluorescence was linear. Initial velocities were calculated and were plotted as a function of the substrate concentration. The inhibition constant KI was determined using Michaelis-Menten kinetics applying GraphPad Prism 9 (Supplementary Figure 31). The obtained data were fitted to three different inhibition models, namely competitive, uncompetitive, and non-competitive inhibition.
The best fit was obtained for the competitive inhibition mode, resulting in the highest correlation […]
Supplementary Figure 31. Michaelis-Menten plots of compound 21 using inhibitor […]
Table 2. Results of Michaelis-Menten plots for different modes of inhibition of compound 21 (competitive, uncompetitive and non-competitive inhibition).
Inhibition model Competitive Uncompetitive Non-competitive
(1 picture or pasted object on this page, not shown here)

[3] = system: HGF‐induced tyrosine phosphorylation of ERK 1/2 in HeLa cells; test: Western blot of p-ERK in HGF-stimulated HeLa cells; assay type: cell-based; conditions: 1 h treatment
Procedure: Cellular experiments: HeLa cells were cultivated in DMEM buffer with 10 % FCS in 75 cm^2 cell culture flasks at 37 °C, 5 % CO2. At confluency of about 75 %, cells were seeded in a density of 250,000 cells/mL in 6‐well plates and incubated for 24 h. Subsequently, medium was removed and replaced by DMEM buffer with 0.1 % BSA (1 mL per well) and incubated for another 16 h. Hepatocyte growth factor (HGF, 20 ng/well) and test compounds in different final concentrations (1 μL, in DMSO) were added. Control wells received the same amount of DMSO (final concentration 0.1 %) or no addition. Plates were incubated for 1 h, then washed with cold PBS and shaken with lysis buffer (mPer reagent ThermoScientific # 78501 with 1 mM NaF, 2 mM Na3VO4, 25× protease inhibitor) for 5 min. Cell lysates were transferred to Eppendorf cups and centrifuged at 4 °C with 10,000 g for 10 min. […] The blot was incubated with anti‐phospo‐ERK as primary antibody (Cell Signaling # 9106, dilution 1 : 2000 in TBS‐Tween/ 2 % BSA) overnight at 4 °C, washed 3×5 min with TBS‐Tween, and incubated with anti‐mouse IgG‐hrp as secondary antibody (Santa Cruz # sc2031, 1 : 6000 in TBS‐ Tween/ 2 % BSA, RT, 1.5 h). The blot was again washed 3×5 min with TBS‐Tween and imaged with the ECL system (ThermoScientific # 34080) at Syngene PXi Imager. From the same lysis sample, under the same conditions, ERK 1/2 and β‐tubulin were blotted. For β‐tubulin, the antibody incubation time was adjusted to 2 h at RT.

`CC(=O)N[C@@H](CC(=O)O)C(=O)N[C@@H](C)C(=O)N[C@@H](CC(=O)O)C(=O)N[C@@H](CCC(=O)O)C(=O)N[C@@H](Cc1ccc(C(F)(F)P(=O)(O)O)cc1)C(=O)N[C@@H](CC(C)C)C(N)=O` [Compound 2, Ac-DADE-(PDFM-F)-L-NH2, reference compound] (Ac-DADE[F2Pmp]L-NH2) was tested, and the Ki ([1]; read-out: KI PTP1B) was 1400 ± 400 nM.

In the case of `CC(=O)N[C@@H](CC(=O)O)C(=O)N[C@@H](C)C(=O)N[C@@H](CC(=O)O)C(=O)N[C@@H](CCC(=O)O)C(=O)NC(CNc1ccc(CC(=O)O)cc1)C(=O)N[C@@H](CC(C)C)C(N)=O` (stereo partly drawn) [Compound 15] (Ac-DADE[ξDap](X1)L-NH2), the Ki ([1]; read-out: KI PTP1B) is reported as 138000 ± 21000 nM.

In the case of `CC(=O)N[C@@H](CC(=O)O)C(=O)N[C@@H](C)C(=O)N[C@@H](CC(=O)O)C(=O)N[C@@H](CCC(=O)O)C(=O)NC(CNc1ccc(OCC(=O)O)cc1)C(=O)N[C@@H](CC(C)C)C(N)=O` (stereo partly drawn) [Compound 16] (Ac-DADE[ξDap](X2)L-NH2), the Ki ([1]; read-out: KI PTP1B) is reported as 213000 ± 21000 nM.

`CC(=O)N[C@@H](CC(=O)O)C(=O)N[C@@H](C)C(=O)N[C@@H](CC(=O)O)C(=O)N[C@@H](CCC(=O)O)C(=O)NC(CC1C(=O)NC(=O)NC1=O)C(=O)N[C@@H](CC(C)C)C(N)=O` (stereo partly drawn) [Compound 17] (Ac-DADE[X3]L-NH2) was tested, and the Ki [1] was 123000 ± 16000 nM.

`CC(=O)N[C@@H](CC(=O)O)C(=O)N[C@@H](C)C(=O)N[C@@H](CC(=O)O)C(=O)N[C@@H](CCC(=O)O)C(=O)N[C@@H](CNc1ccc(NS(=O)(=O)C(F)(F)F)cc1)C(=O)N[C@@H](CC(C)C)C(N)=O` [Compound 18] (Ac-DADE[Dap](X4)L-NH2) gave a Ki ([1]; read-out: KI PTP1B) of 202000 ± 21000 nM.

`O=C(O)Cc1ccc(N/N=C2\C(=O)N(c3ccc([N+](=O)[O-])cc3)N=C2c2ccc([N+](=O)[O-])cc2)cc1` [Compound 21, (Z)‐2‐(4‐(2‐(1,3‐Bis‐(4‐nitrophenyl)‐5‐oxo‐1,5‐dihydro‐4H‐pyrazol‐4‐ylidene)‐hydrazinyl)‐phenyl)‐acetic acid] was tested, and the Ki [2] was 79 nM, the Ki (SHP2; Michaelis-Menten kinetics at different substrate concentrations, competitive model, read-out: KI SHP2 (Table 2, footnote b) (converted)) was 32 nM and the “Mode of inhibition of SHP2” value (SHP2; best fit among competitive, uncompetitive, non-competitive models) was “competitive inhibitor; also recorded: competitive mode of inhibition”. The “KI by Michaelis-Menten kinetics, uncompetitive model” value (SHP2; inhibitor 0, 75, 100, 150 nM, DiFMUP 100, 50, 25, 12.5 µM, R2 0.8637) was 8.4 nM, the Ki (SHP2; inhibitor 0, 75, 100, 150 nM, DiFMUP 100, 50, 25, 12.5 µM, R2 0.8991, read-out: KI by Michaelis-Menten kinetics, non-competitive model) was 46.5 nM and the Ki (SHP2; inhibitor 0, 75, 100, 150 nM, DiFMUP 100, 50, 25, 12.5 µM, best fit, R2 0.9007, read-out: KI by Michaelis-Menten kinetics, competitive model) was 32 nM. For the same molecule, the “Effect on HGF‐induced tyrosine phosphorylation of ERK 1/2” value ([3]; Western blot, DMSO control) was “decreased” and the “Concentration giving (complete) dephosphorylation of Erk / inhibition of Erk phosphorylation” value ([3]; HGF 20 ng/well, Western blot p-ERK) was 6.25 µM.
